Reference: patent US7598400B2, “AMPO spin traps” (The Ohio State University Research Foundation, priority 2004, dated 2009)
Like-named read-outs stand apart in the source and are kept apart here.

What was measured:
[1] = Partition coefficient n-octanol/water (buffer); type: physicochemical; settings: for Kp (n-octanol/water): pH 7.2, shaken for 2 hrs at 37° C.
[2] = Spin trapping of radicals detected by EPR spectroscopy; settings: hydroxyl, superoxide, C-centered, sulfite, and tert-butoxyl radicals
Description: Miscellaneous Spin Trapping Studies Fenton reaction system. A 50 μL 0.1 M phosphate buffer solution containing 30 mM AMPO, 1% H2O2 and 65 mM FeSO4 was transferred to a 50 μL capillary tube and EPR spectrum of the hydroxyl adduct was recorded over 5 min time period.
Trapping of SO3^•−, CO2^•− and CH3.CHOH radicals. 50 μL 0.1 M phosphate buffer solution containing 30 mM AMPO, 1% H2O2 and 100 mM of the respective radical source NaHCO2, Na2SO3, or ethanol with 65 mM freshly prepared FeSO4. The mixture was then transferred to 50 μL capillary tube and EPR spectrum of the adduct was recorded over a 5 min time period.
Trapping of GS. and t-BuO. radicals. 50 μL 0.1 M phosphate buffer solution containing 30 mM AMPO and 100 mM GSSG or (CH3)3CO—OC(CH3)3. The mixture was then transferred to 50 μL capillary tube and the radicals were generated by UV photolysis. EPR spectrum of the adduct was recorded over a 5 min time period.
(§1) Trapping of O2^•−. Typical O2^•− trapping experiments utilized the riboflavin-light system as described in the Kinetics section. An alternative O2^•− generating system used a solution of 0.4 mM xanthine and 0.5 unit/mL xanthine oxidase, or 10 nM PMA and 8×10^5 neutrophil cells in 25 mM AMPO. Spectra were acquired over a period of 15 min.

[3] = Rate of superoxide radical trapping by competitive trapping versus DEPMPO (EPR); settings: based on kDEPMPO=58 M^−1 s^−1
Description: The nitrone 5-carbamoyl-5-methyl-1-pyrroline N-oxide (AMPO) was successfully synthesized and characterized. […] Resulting spin adducts for each of these radicals gave unique spectral profiles. […] Theoretical analyses using density functional theory calculations at the B3LYP/6-31=G**/B3LYP6-31G* level were performed on AMPO and its corresponding suproxide product. Calculations predicted the presence of intramolecular H-bonding in both AMPO and its superoxide adduct, and these interactions were further confirmed by an X-ray structure (in the case of AMPO) of a novel and the amido nitrone compound 2-amino-5-carbamoyl-5-methyl-1-pyrroline N-oxide (NH2-AMPO).
as §1

[4] = Decay kinetics of nitrone-superoxide adducts (EPR, riboflavin-light system); type: physicochemical; settings: pH 7.2 and 23° C.; this work
Description: Decay Kinetics In a typical decay kinetic study, 50 μL solution containing 25 mM of the nitrone and 100 μM riboflavin was irradiated for 3 min in the cavity. […] All data were the average of 3 or more measurements.

[5] = value of the competitor DEPMPO used as basis of the calculation; cited from earlier work
[6] = pH 7.2 and 23° C.; literature reference; cited from earlier work

| Kp (n-octanol/water) [1] | SMILES | partition coefficient in an n-octanol/buffer system (comparison in words) ([1]; n-octanol/buffer system) | Spin trapping of radicals by EPR [2] | Rate of superoxide radical trapping (k) [3] | kl /10^−4s^−1 (first order decay of nitrone-superoxide adduct) [4] | Rate of superoxide radical trapping (k), reference value [5] | kl /10^−4s^−1 (first order decay of nitrone-superoxide adduct) [6] | t1/2/min, first order approximation half-life of nitrone-superoxide adduct [6] |
| --- | --- | --- | --- | --- | --- | --- | --- | --- |
| 0.03 | CC1(C(N)=O)CCC=[N+]1[O-] (stereo not shown) [AMPO, 5-carbamoyl-5-methyl-1-pyrroline N-oxide] | comparable value to those of DMPO and DEPMPO | has been demonstrated | 38 M⁻¹ s⁻¹ | 14.0 ± 1.2 10^−4s^−1 | – | – | – |
| 0.06 | CC1(C)CCC=[N+]1[O-] [DMPO] | – | – | – | – | – | 129.0 10^−4s^−1 | 0.9 min |
| 0.33 | CCOC(=O)C1(C)CCC=[N+]1[O-] (stereo not shown) [EMPO, 5-ethoxycarbonyl-5-methyl-1-pyrroline N-oxide] | – | – | 44 M⁻¹ s⁻¹ | 11.6 ± 0.5 10^−4s^−1 | – | – | – |

| SMILES | Kp (n-octanol/water) [1] | partition coefficient in an n-octanol/buffer system (comparison in words) ([1]; n-octanol/buffer system) | Spin trapping of radicals by EPR [2] | Rate of superoxide radical trapping (k) [3] | kl /10^−4s^−1 (first order decay of nitrone-superoxide adduct) [4] | Rate of superoxide radical trapping (k), reference value [5] | kl /10^−4s^−1 (first order decay of nitrone-superoxide adduct) [6] | t1/2/min, first order approximation half-life of nitrone-superoxide adduct [6] |
| --- | --- | --- | --- | --- | --- | --- | --- | --- |
| CCOP(=O)(OCC)C1(C)CCC=[N+]1[O-] (stereo not shown) [DEPMPO, 5-diethoxyphosphoryl-5-methyl-1-pyrroline N-oxide] | 0.16 | – | – | – | 7.5 ± 0.7 10^−4s^−1 | 58 M⁻¹ s⁻¹ | 8.13 10^−4s^−1 | 14.2 min |
